Assay results: patent publication US20250333381A1, “SOLID STATE FORMS” (AMGEN INC., priority 2024, published 2025)
Converted amounts (≈) assume the structure as drawn. “Also recorded” adds a separate entry of the source. Where a name gives a salt, the structure may show the parent alone.

Assays:
C3G patients = conditions: compared to placebo, 26 weeks of blinded treatment; cited from earlier work
HS patients = conditions: vs. placebo, pre-specified Hurley Stage III (severe HS) patients, 12 weeks; cited from earlier work
[1] = Solubility in FaSSIF (shake 2 hr, HPLC); format: physicochemical; conditions: for Solubility: 2 h
Description: Solubility: Samples were prepared by adding ˜10 mg of the solid to a small centrifuge tube followed by the addition of 1.75 mL freshly prepared FaSSIF solution. The pH of each suspension was measured prior to shaking the samples in an Eppendorf ThermoMixer F1.5 at 37° C. and 1500 rpm for 2 hr. The samples were centrifuged, and the pH of each suspension was measured again at the T=2 hr timepoint. The samples were filtered through Millex 0.20 μm PTFE syringe filters and the filtrates were diluted by a factor of 2 with acetonitrile. Solubility samples were prepared in duplicate. […] The samples were analyzed by HPLC using the method parameters described in the table below. [table] […] The samples were analyzed by HPLC using the method parameters described in the table below. [table]

[2] = Dynamic Vapor Sorption (DVS), hygroscopicity; format: physicochemical; conditions: 25° C., 0% RH-90% RH-0% RH
Description: Dynamic Vapor Sorption (DVS): Water sorption data were collected using a DVS Adventure dynamic vapor sorption analyzer (Surface Measurement Systems). The relative humidity at 25° C. was calibrated against the deliquescence point of LiCl, Mg(NO3)2 and KCl. Approximately 5-15 mg were loaded onto a tared metal pan. Data were collected from 0 to 90 to 0% RH in 5% increments at 25° C. Progression to the next stage occurred when the change in mass with respect to time was less than 0.002 per minute or after 180 minutes, whichever occurred first. The minimum stage time was 10 minutes. [table]

[3] = Dissolution profiles, PION MicroDiss (FIG. 16); format: physicochemical; conditions: FaSSIF + 0.2% Tween 80, ~37° C.; for Rate and extent of dissolution: compared to amorphous free base
Description: Dissolution profiles were generated comparing the free base anhydrous crystalline form of Compound A, the amorphous free base form of Compound A, the crystalline HCl salt form of Compound A, and the crystalline HBr salt form of Compound A. The dissolution profiles were obtained by employing a PION MicroDiss profiler equipped with Rainbow […] 8-channel in-situ fiber optic UV-vis spectrometer, heating blocks and magnetic stirrers. Dissolution media was equilibrated at 37° C. using Thermo Neslab RTE 7 recirculating chiller prior to addition of samples. Calibration standards were prepared by serial dilution from a methanol stock solution at 12 levels spanning concentrations 0-38 μg/mL. Samples were analyzed simultaneously in duplicate using the parameters described in the table below. [table]

[4] = Solid form screen: thermodynamic stability and form conversion; format: physicochemical; conditions: for Thermodynamic stability among crystalline forms: screening process of the HCl and HBr salts; for Form conversion upon heating: heating (under vacuum)
Description: A solid form screen of HCl and HBr salts of Compound A was conducted. Crystalline salt forms of Compound A were identified, including a crystalline HCl salt form, a crystalline toluene solvate of a crystalline HCl salt form (also referred to herein an HCl salt toluene solvate form of Compound A), a crystalline HBr salt form, a crystalline toluene solvate of a crystalline HBr salt form (also referred to herein an HBr salt toluene solvate form of Compound A). Amorphous salt forms of Compound A were also identified, including an amorphous HCl salt form and an amorphous HBr salt form.
Further, the DV S data of both crystalline HCl and HBr salts form of Compound A indicate that these two materials are non-hygroscopic.

[5] = Dissolution profiles vs Napsylate, Tosylate, Besylate salt forms (FIGS. 35(a), 35(b)); format: physicochemical; conditions: for Cmax of dissolution profile: Besylate salts
From the text: (§1) FIGS. 35(a) and 35(b) show dissolution profiles of crystalline HCl Form 1 of Compound A of this disclosure compared to Napsylate, Tosylate, and Besylate salt forms of Compound A. The concentrations of the salts used are roughly double in FIG. 35(b) than in FIG. 35(a).
as §1, with “A. Besylate, Tosylate Napsylate salt forms of Compound A were prepared as described in WO 2021/092295.” for “A.”

Compound: Cc1ccc(NC(=O)[C@H]2CCCN(C(=O)c3c(C)cccc3F)[C@H]2c2ccc(NC3CCCC3)cc2)cc1C(F)(F)F [Compound A, (2R,3S)-2-(4-(cyclopentylamino)phenyl)-1-(2-fluoro-6-methylbenzoyl)-N-(4-methyl-3-(trifluoromethyl)phenyl)piperidine-3-carboxamide]
- Renal function as measured by eGFR (C3G patients): statistically significant improvement in renal function
- HiSCR (Hidradenitis Suppurativa Clinical Response) (HS patients): statistically significant dose-dependent improvement in HiSCR

Compound: Cc1ccc(NC(=O)[C@H]2CCCN(C(=O)c3c(C)cccc3F)[C@H]2c2ccc(NC3CCCC3)cc2)cc1C(F)(F)F [Crystalline HBr salt form, (2R,3S)-2-(4-(cyclopentylamino)phenyl)-1-(2-fluoro-6-methylbenzoyl)-N-(4-methyl-3-(trifluoromethyl)phenyl)piperidine-3-carboxamide]
- Solubility relative to Besylate, Tosylate and Napsylate forms [1]: significantly more soluble
- Hygroscopicity (DVS) [2]: non-hygroscopic
- Rate and extent of dissolution ([3]; listed as crystalline HBr salt form of Compound A): performed similar in terms of rate and extent of dissolution to the amorphous form of avacopan
- Thermodynamic stability among crystalline forms [4]: most thermodynamically stable crystalline forms identified in the screening process

Compound: Cc1ccc(NC(=O)[C@H]2CCCN(C(=O)c3c(C)cccc3F)[C@H]2c2ccc(NC3CCCC3)cc2)cc1C(F)(F)F [Crystalline HCl salt form, (2R,3S)-2-(4-(cyclopentylamino)phenyl)-1-(2-fluoro-6-methylbenzoyl)-N-(4-methyl-3-(trifluoromethyl)phenyl)piperidine-3-carboxamide]
- Solubility relative to Besylate, Tosylate and Napsylate forms [1]: significantly more soluble
- Hygroscopicity (DVS) [2]: non-hygroscopic
- Rate and extent of dissolution ([3]; listed as crystalline HCl salt form of Compound A): follows very closely
- Cmax of dissolution profile ([3]; compared to crystalline HBr salt and amorphous form): lesser Cmax
- Tmax of dissolution profile ([5]; Besylate salt forms): higher than the Napsylate, Tosylate, and Besylate salt forms of Compound A
- Cmax of dissolution profile ([5]; FaSSGF+0.2% tween 80 (pH 1.2)): highest Cmax of all salts
- Cmax of dissolution profile ([5]; FaSSIF+0.2% tween 80 (pH 6.5)): highest Cmax of all salts
- Thermodynamic stability among crystalline forms [4]: most thermodynamically stable crystalline forms identified in the screening process

Compound: Cc1ccc(NC(=O)[C@H]2CCCN(C(=O)c3c(C)cccc3F)[C@H]2c2ccc(NC3CCCC3)cc2)cc1C(F)(F)F [Free Base Amorphous Form, (2R,3S)-2-(4-(cyclopentylamino)phenyl)-1-(2-fluoro-6-methylbenzoyl)-N-(4-methyl-3-(trifluoromethyl)phenyl)piperidine-3-carboxamide, reference compound]
- Solubility [1]: 19.44 µg/mL (≈ 33.4 µM)

Compound: Cc1ccc(NC(=O)[C@H]2CCCN(C(=O)c3c(C)cccc3F)[C@H]2c2ccc(NC3CCCC3)cc2)cc1C(F)(F)F [Free Base Anhydrous Crystalline Form, (2R,3S)-2-(4-(cyclopentylamino)phenyl)-1-(2-fluoro-6-methylbenzoyl)-N-(4-methyl-3-(trifluoromethyl)phenyl)piperidine-3-carboxamide, reference compound]
- Solubility [1]: 1.71 µg/mL (≈ 2.94 µM)

Compound: Cc1ccc(NC(=O)[C@H]2CCCN(C(=O)c3c(C)cccc3F)[C@H]2c2ccc(NC3CCCC3)cc2)cc1C(F)(F)F [HBr salt toluene solvate form of Compound A] [(2R,3S)-2-(4-(cyclopentylamino)phenyl)-1-(2-fluoro-6-methylbenzoyl)-N-(4-methyl-3-(trifluoromethyl)phenyl)piperidine-3-carboxamide]
- Form conversion upon heating [4]: convert to the respective HBr and HCl crystalline salt forms of Compound A upon heating; also recorded: converts to the HCl crystalline salt form of Compound A upon heating under vacuum from about 100 °C to about 125 °C from about 4 to about 24 hours

Compound: Cc1ccc(NC(=O)[C@H]2CCCN(C(=O)c3c(C)cccc3F)[C@H]2c2ccc(NC3CCCC3)cc2)cc1C(F)(F)F [HCl salt toluene solvate form of Compound A] [(2R,3S)-2-(4-(cyclopentylamino)phenyl)-1-(2-fluoro-6-methylbenzoyl)-N-(4-methyl-3-(trifluoromethyl)phenyl)piperidine-3-carboxamide]
- Form conversion upon heating [4]: convert to the respective HBr and HCl crystalline salt forms of Compound A upon heating; also recorded: converts to the HCl crystalline salt form of Compound A upon heating under vacuum at about 60 °C for about 2 hours
